In the supplement of paper PMC10307832:

Assays:
Experiment in all cases: relative viability (nuclei count vs DMSO), 5 days (fraction); higher = more cells survive
Tosedostat + Alpelisib = compound: CC(C)C[C@@H](C(=O)N[C@H](C(=O)OC1CCCC1)c1ccccc1)[C@H](O)C(=O)NO [Tosedostat] + Cc1nc(NC(=O)N2CCC[C@H]2C(N)=O)sc1-c1ccnc(C(C)(C)C(F)(F)F)c1 [Alpelisib] (partner 2 µM)
Procedure, shortened: (§1)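 Dosing by pin tool came one day after lung cancer cell lines were seeded in 1536-well plates, using either one drug or a fixed anchor-drug dose plus five library-drug doses (not always all listed) in √10 steps. After 5 days, nuclei were counted on 4× images. Relative viability is treated-well nuclei count divided by vehicle-well nuclei count, and values are medians of duplicate plates.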

[1] = compound: CC1=NN=C(O1)C2=NN=C(C=C2)N3CCC(CC3)OC4=C(C=CC(=C4)F)Cl + COc1cc2c(Oc3ccc(NC(=O)C4(C(=O)Nc5ccc(F)cc5)CC4)cc3F)ccnc2cc1OCCCN1CCOCC1 [Foretinib] (partner 0.25 µM)
Procedure, shortened: as §1

[2] = compound: CC1=NN=C(O1)C2=NN=C(C=C2)N3CCC(CC3)OC4=C(C=CC(=C4)F)Cl + N=C(N)NC(=N)NCCc1ccccc1 [Phenformin] (partner 250 µM)
Procedure, shortened: as §1

Tosedostat + Dasatinib = compound: CC(C)C[C@@H](C(=O)N[C@H](C(=O)OC1CCCC1)c1ccccc1)[C@H](O)C(=O)NO [Tosedostat] + Cc1nc(Nc2ncc(C(=O)Nc3c(C)cccc3Cl)s2)cc(N2CCN(CCO)CC2)n1 [Dasatinib] (partner 0.075 µM)
Procedure, shortened: as §1

| Cell Line | relative viability (Tosedostat + Alpelisib; first compound 0.02 µM) | relative viability (Tosedostat + Alpelisib; first compound 0.06325 µM) | relative viability (Tosedostat + Alpelisib; first compound 0.2 µM) | relative viability (Tosedostat + Alpelisib; first compound 0.6325 µM) | relative viability (Tosedostat + Alpelisib; first compound 2 µM) | relative viability ([1]; first compound 0.253 µM) | relative viability ([1]; first compound 0.8 µM) | relative viability ([1]; first compound 2.53 µM) | relative viability ([1]; first compound 8 µM) | relative viability ([2]; first compound 0.253 µM) | relative viability ([2]; first compound 0.8 µM) | relative viability ([2]; first compound 2.53 µM) | relative viability ([2]; first compound 8 µM) | relative viability (Tosedostat + Dasatinib; first compound 0.02 µM) | relative viability (Tosedostat + Dasatinib; first compound 0.06325 µM) | relative viability (Tosedostat + Dasatinib; first compound 0.2 µM) | relative viability (Tosedostat + Dasatinib; first compound 0.6325 µM) | relative viability (Tosedostat + Dasatinib; first compound 2 µM) |
| --- | --- | --- | --- | --- | --- | --- | --- | --- | --- | --- | --- | --- | --- | --- | --- | --- | --- | --- |
| NCI-H441 | 0.749 | 0.582 | 0.597 | 0.501 | 0.534 | 0.658 | 0.78 | 0.686 | 0.605 | 0.715 | 0.498 | 0.699 | 0.619 | 0.702 | 0.61 | 0.583 | 0.445 | 0.539 |
| NCI-H460 | 0.535 | 0.472 | 0.619 | 0.689 | 0.796 | 0.282 | 0.299 | 0.273 | 0.243 | 0.298 | 0.309 | 0.291 | 0.258 | 0.601 | 0.644 | 0.57 | 0.459 | 0.498 |
| NCI-H520 | 0.805 | 0.807 | 0.929 | 1.12 | 0.946 | 0.653 |  | 0.757 | 0.77 | 0.509 | 0.414 | 0.741 | 0.578 | 0.146 | 0.202 |  | 0.243 | 0.28 |
| NCI-H596 | 0.48 | 0.51 | 0.483 | 0.619 | 0.552 | 0.71 | 0.751 | 0.837 | 0.682 | 0.648 | 0.611 | 0.697 | 0.525 | 0.648 | 0.623 | 0.614 | 0.656 | 0.619 |
| NCI-H647 | 1.3 | 1.13 | 1.02 | 1.09 | 1.14 | 0.565 | 0.623 | 0.586 | 0.426 | 0.441 | 0.446 | 0.408 | 0.2 | 0.212 | 0.211 | 0.218 | 0.197 | 0.151 |
| NCI-H650 | 1 | 1.15 | 1.14 | 0.97 | 0.683 | 1.01 | 0.959 | 0.911 | 1.06 | 0.478 | 0.444 | 0.43 | 0.414 | 0.471 | 0.49 | 0.424 | 0.422 | 0.388 |
| NCI-H661 | 0.736 | 0.627 | 0.428 | 0.594 | 0.531 | 0.912 | 0.845 | 0.837 | 0.731 | 0.282 | 0.308 | 0.244 | 0.277 | 1.02 | 0.834 | 0.846 | 0.815 | 0.695 |
| NCI-H727 | 0.665 | 0.569 | 0.472 | 0.41 | 0.364 | 0.786 | 0.822 | 0.838 | 0.828 | 0.613 |  | 0.496 | 0.482 | 0.404 | 0.339 |  | 0.311 | 0.29 |
| NCI-H838 | 1.03 | 0.903 | 1 | 1.04 | 1.17 | 0.887 | 0.83 | 0.868 | 0.88 | 0.588 | 0.434 | 0.515 | 0.504 | 0.317 | 0.342 | 0.299 | 0.329 | 0.27 |
| NCI-H1355 | 0.704 | 0.798 | 0.854 | 0.667 | 0.688 | 0.723 | 0.802 | 0.895 | 0.845 | 0.405 | 0.37 | 0.446 | 0.411 | 0.758 | 0.681 | 0.728 | 0.592 | 0.57 |
| NCI-H1395 | 1.03 | 0.922 | 0.965 | 0.791 | 0.876 | 0.939 | 0.901 | 0.969 | 0.893 | 0.453 | 0.398 | 0.439 | 0.429 | 0.383 | 0.426 | 0.448 | 0.468 | 0.41 |
| NCI-H1437 | 0.984 | 1.05 | 0.969 | 0.828 | 0.506 | 0.724 | 0.805 | 0.729 | 0.512 | 0.209 | 0.236 | 0.288 | 0.252 | 0.488 | 0.46 | 0.415 | 0.323 | 0.327 |
| NCI-H1563 | 0.879 | 1 | 0.956 | 1.16 | 1.1 | 0.925 | 0.866 | 0.931 | 0.951 | 0.646 | 0.659 | 0.612 | 0.641 | 0.507 | 0.528 | 0.459 | 0.512 | 0.442 |
| NCI-H1651 | 0.832 | 0.92 | 0.996 | 0.995 | 0.924 | 0.819 | 0.619 | 0.689 | 0.848 | 0.367 | 0.487 | 0.368 | 0.325 | 0.566 | 0.384 | 0.411 | 0.399 | 0.338 |
| NCI-H1666 | 0.99 | 0.841 | 1.06 | 0.995 | 0.951 | 0.496 | 0.47 | 0.459 | 0.412 | 0.509 | 0.57 | 0.555 | 0.584 | 0.771 | 0.871 | 0.854 | 0.848 | 0.874 |
| NCI-H1734 | 0.672 | 0.647 | 0.742 | 0.593 | 0.646 | 0.861 | 0.857 | 0.769 | 0.699 | 0.429 | 0.32 | 0.405 | 0.395 | 0.523 | 0.477 | 0.436 | 0.466 | 0.446 |
| NCI-H1755 | 0.941 | 0.9 | 0.922 | 0.864 | 0.883 | 0.641 | 0.719 | 0.731 | 0.647 | 0.567 | 0.565 | 0.523 | 0.56 | 0.436 | 0.403 | 0.444 | 0.42 | 0.361 |
| NCI-H1793 | 0.691 | 0.851 | 0.567 | 0.649 | 0.673 | 0.448 | 0.639 | 0.565 | 0.621 | 0.402 | 0.385 | 0.37 | 0.315 | 0.431 | 0.408 | 0.388 | 0.316 | 0.37 |
